Test results reported in PubChem BioAssay AID330 (DTP/NCI, 2004).
Values joined by “and” are separate entries in the source; they are usually repeats but may differ in a detail not shown here. Identical values can stand only once. Inconclusive results and toxic doses are left out. Rule for the calls: active = survival T/C of 150% or more; inactive = T/C below 125% in these data.

Test system: P388 leukemia ip, CD2F1 mice, survival T/C
Experiment: NCI In Vivo Anticancer Drug Screen. Data for tumor model P388 Leukemia (intraperitoneal) in CD2F1 (CDF1) mice
Conditions: endpoint: median survival time, higher = longer survival
In short: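 Mice carrying the transplanted tumor received test compound or vehicle. Survival was recorded in each group, and the value is the treated-group measurement divided by that of the vehicle-treated control group.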

[1] = dose: 50.0 mg/kg/injection, schedule: Q01DX009 (ip), vehicle: Klucel (hydroxypropylcellulose) (HPC)
[2] = dose: 100.0 mg/kg/injection, schedule: Q01DX001 (ip), vehicle: saline with Tween-80
[3] = dose: 200.0 mg/kg/injection, schedule: Q01DX001 (ip), vehicle: saline with Tween-80
[4] = dose: 12.5 mg/kg/injection, schedule: Q01DX009 (ip), vehicle: saline with Tween-80
[5] = dose: 25.0 mg/kg/injection, schedule: Q01DX009 (ip), vehicle: saline with Tween-80
[6] = dose: 50.0 mg/kg/injection, schedule: Q01DX009 (ip), vehicle: saline with Tween-80
[7] = dose: 100.0 mg/kg/injection, schedule: Q01DX009 (ip), vehicle: saline with Tween-80
[8] = dose: 100.0 mg/kg/injection, schedule: Q01DX009 (ip), vehicle: Klucel (hydroxypropylcellulose) (HPC)
[9] = dose: 200.0 mg/kg/injection, schedule: Q01DX009 (ip), vehicle: Klucel (hydroxypropylcellulose) (HPC)
[10] = dose: 50.0 mg/kg/injection, schedule: Q01DX005 (ip), vehicle: saline with Tween-80
[11] = dose: 100.0 mg/kg/injection, schedule: Q01DX005 (ip), vehicle: saline with Tween-80
[12] = dose: 200.0 mg/kg/injection, schedule: Q01DX005 (ip), vehicle: saline with Tween-80

Measured: T/C

CCCCCCCCCCCCC[N+](C)([O-])CCCCCC[N+](C)([O-])CCCCCCCCCCCCC (stereo unspecified)
inactive: dose: 12.5 mg/kg/injection, schedule: Q01DX009 (ip), vehicle: Klucel (hydroxypropylcellulose) (HPC) 100 % of control | dose: 25.0 mg/kg/injection, schedule: Q01DX009 (ip), vehicle: Klucel (hydroxypropylcellulose) (HPC) 93 % of control | [1] 101 % of control and 93 % of control

N#CCc1nc2ncc(Br)cc2[nH]1
inactive: [2] 100 % of control | [3] 104 % of control | dose: 400.0 mg/kg/injection, schedule: Q01DX001 (ip), vehicle: saline with Tween-80 100 % of control

Cc1c(-c2ccccc2)sc(/N=C/c2cc(Br)cc(Br)c2O)c1C#N
inactive: [4] 99 % of control | [5] 98 % of control | [6] 100 % of control | [7] 99 % of control

Cc1ccc(/C=C2/C(=O)N(c3ccccc3)N=C2c2ccccc2)cc1
inactive: dose: 1.87 mg/kg/injection, schedule: Q01DX005 (ip), vehicle: saline with Tween-80 110 % of control | dose: 3.75 mg/kg/injection, schedule: Q01DX005 (ip), vehicle: saline with Tween-80 113 % of control | dose: 3.75 mg/kg/injection, schedule: Q01DX005 (ip), vehicle: saline 95 % of control | dose: 7.5 mg/kg/injection, schedule: Q01DX005 (ip), vehicle: saline with Tween-80 113 % of control | dose: 15.0 mg/kg/injection, schedule: Q01DX005 (ip), vehicle: saline with Tween-80 110 % of control | dose: 15.0 mg/kg/injection, schedule: Q01DX005 (ip), vehicle: saline 100 % of control | dose: 30.0 mg/kg/injection, schedule: Q01DX005 (ip), vehicle: saline with Tween-80 109 % of control | dose: 60.0 mg/kg/injection, schedule: Q01DX005 (ip), vehicle: saline with Tween-80 108 % of control

COc1cc([N+](=O)[O-])ccc1Nc1c2ccccc2nc2ccccc12
inactive: [1] 99 % of control | [8] 98 % of control | [9] 90 % of control

CCOc1cccc(Cl)n1
inactive: [6] 104 % of control | [7] 100 % of control | dose: 200.0 mg/kg/injection, schedule: Q01DX009 (ip), vehicle: saline with Tween-80 90 % of control

CSCC1(CCO)OCCO1
inactive: [5] 100 % of control | [6] 94 % of control | [7] 94 % of control

Clc1ccc(CN2COc3c(cc(Cl)c4cccnc34)C2)cc1Cl
inactive: dose: 100.0 mg/kg/injection, schedule: Q04DX003 (ip), vehicle: Klucel (hydroxypropylcellulose) (HPC) 97 % of control | dose: 200.0 mg/kg/injection, schedule: Q04DX003 (ip), vehicle: Klucel (hydroxypropylcellulose) (HPC) 97 % of control | dose: 400.0 mg/kg/injection, schedule: Q04DX003 (ip), vehicle: Klucel (hydroxypropylcellulose) (HPC) 89 % of control

COCCCNC(=O)c1nnn2c1nc(N)c1cc(Cl)ccc12
inactive: dose: 50.0 mg/kg/injection, schedule: Q01DX005 (ip), vehicle: Klucel (hydroxypropylcellulose) (HPC) 94 % of control | dose: 100.0 mg/kg/injection, schedule: Q01DX005 (ip), vehicle: Klucel (hydroxypropylcellulose) (HPC) 88 % of control

C/C(=C/C=C(c1ccccc1)c1ccccc1)C1CCC2C3CCC4CC5CCC4(C)C3(O5)C(=O)CC12C (stereo unspecified)
inactive: dose: 6.25 mg/kg/injection, schedule: Q04DX002 (sc), vehicle: steriod suspending solution 102 % of control | dose: 12.5 mg/kg/injection, schedule: Q04DX002 (sc), vehicle: steriod suspending solution 105 % of control | dose: 25.0 mg/kg/injection, schedule: Q04DX002 (sc), vehicle: steriod suspending solution 101 % of control | dose: 50.0 mg/kg/injection, schedule: Q04DX002 (sc), vehicle: steriod suspending solution 101 % of control

c1ccc(C23CN(Cc4ccccc42)Cc2ccccc23)cc1
inactive: [2] 95 % of control | [3] 88 % of control

O=C(CI)NCCNc1cccc2c(S(=O)(=O)O)cccc12
inactive: [5] 102 % of control | [6] 100 % of control | [7] 110 % of control and 95 % of control

CC(C)(C)OC(=O)n1cnc(CC(NC(=O)OCc2ccccc2)C(=O)O)c1 (stereo unspecified)
inactive: [10] 105 % of control | [11] 100 % of control | [12] 106 % of control

CCCCCCNc1nc(NCCCCCC)c2[nH]c(NCCCCCC)nc2n1
inactive: [10] 122 % of control

Cc1ccc2c3c1CCCN3CCC2
inactive: dose: 50.0 mg/kg/injection, schedule: Q04DX003 (ip), vehicle: saline 112 % of control | dose: 100.0 mg/kg/injection, schedule: Q04DX003 (ip), vehicle: saline 112 % of control

CC(C)(C)N=NNc1ccc([N+](=O)[O-])cc1
inactive: dose: 12.5 mg/kg/injection, schedule: Q01DX009 (ip), vehicle: distilled water + Tween-80 106 % of control | dose: 25.0 mg/kg/injection, schedule: Q01DX009 (ip), vehicle: distilled water + Tween-80 100 % of control | dose: 50.0 mg/kg/injection, schedule: Q01DX009 (ip), vehicle: distilled water + Tween-80 93 % of control | dose: 100.0 mg/kg/injection, schedule: Q01DX009 (ip), vehicle: distilled water + Tween-80 86 % of control | dose: 200.0 mg/kg/injection, schedule: Q01DX009 (ip), vehicle: distilled water + Tween-80 96 % of control

C[n+]1cccc(C(=S)[S-])c1
inactive: [4] 100 % of control | [5] 95 % of control | [6] 90 % of control

CC(C)(C)OC(=O)N1CCCC1C1=N/C(=C\c2ccccc2)C(=O)O1 (stereo unspecified)
inactive: [10] 102 % of control | [11] 111 % of control | [12] 105 % of control

CCOC(=O)CNC(=O)N1COCC1(C)C
inactive: [1] 95 % of control | [8] 95 % of control | [9] 95 % of control
